In patent publication US20140128399A1, “METHODS AND COMPOSITIONS FOR TREATING URINARY TRACT INFECTIONS USING AGENTS THAT MIMIC OR ELEVATE CYCLIC AMP” (DUKE UNIVERSITY, priority 2007, published 2014):

Legend:
[1] = system: E. coli ORN103(pSH2)-infected 5637 BECs; assay: Bacterial exocytosis assay; format: cell-based, human; conditions: inhibitors added during gentamicin incubation; H89 10 μM, NiCl2
Method: In this assay, 5637 BECs were infected with bacteria as above. Infection continued for 60 min, and then the cells were washed with culture medium (including 100 μg/ml gentamicin and 100 mM methyl α-D-mannopyranoside (Sigma, St. Louis, Mo.)) for an additional 30 min. The cells were then washed twice and then allowed to incubate for 1-4 h with fresh culture medium containing 100 mM methyl α-D-mannopyranoside. At each time point, the culture medium and one wash of 100 μl of culture medium with methyl α-D-mannopyranoside were collected and pooled. The inhibitors H89 (10 μM) and NiCl2 ([…]) were added during the gentamicin incubation and left in the culture medium. All homogenates and pooled culture medium were cultured for colony counts. All exocytosis assays had n=12 wells of a 96-well plate.

5637 BECs = assay: β-hexosaminidase release assay; format: cell-based, human; conditions: for release of β-hexosaminidase from E. coli-infected BECs: E. coli ORN103(pSH2)-infected 5637 BECs, NiCl2 2 mM, H89 10 μM; for release of β-hexosaminidase into extracellular media: uninfected 5637 BECs, 1 hr, forskolin 100 μM, dibutyryl-cAMP 1 mM, calcium ionophore 1 μM
IL-6 = IL-6 ELISA of urine; format: in vivo, mouse
Method: In this assay, 8-week-old female C3H/HeJ mice were infected with E. coli CI5 as above. After 6 h, the mice were intraperitoneally injected with 100 μl of PBS, with or without 10 mg/kg forskolin. Urine was collected at 6 and 24 h after infection, using clean catch methods, and the samples were stored at −80° C. The concentration of IL-6 in the urine was determined using the mouse IL-6 ELISA kit (eBioscience, San Diego, Calif.) according to the manufacturer's protocol.

[2] = system: fusiform vesicles of mouse bladder BECs; assay: Immunofluorescence of bladder sections (Rab27b); format: in vivo; conditions: mouse bladders, antibodies to Rab27b, forskolin 100 μM 1 h
Method: Balb/c mice were either infected with E. coli CI5 as above, or they were treated with either 100 μM forskolin or PBS for 1 h through a catheter. Frozen sections of these bladders were cut using standard methods. Each section was fixed in 100% ethanol for 20 min at −20° C., and blocked in PBS with 1% BSA for 1 h at 4° C. Sections were incubated overnight at 25° C. with primary antibodies to either Rab27b (Santa Cruz Biotechnology, Inc., Santa Cruz, Calif.) or UPIII (Santa Cruz Biotechnology), and washed. Sections were incubated for 1 h at room temperature with secondary antibodies, and washed. To visualize the nuclei, the sections were incubated with Hoechst-33258 for 5 min at room temperature and then washed. All dilutions and washes were with PBS and 1% BSA. Coverslips were viewed as described previously.

S. enterica SL1344 = assay: In vivo bladder infection, 2-h-long infection, intracellular bacterial CFU; parameters: species or system mouse; conditions: BALB/c mice, forskolin 2 h after infection, i.p. 10 mg/kg and by catheter 100 μM
Method: (§1) In this procedure, 8-week-old female BALB/c mice were anesthetized with sodium pentobarbital and then inoculated transurethrally with 50 μl of either E. coli CI5 or a bacterial suspension (approximately 1.0×10^8 CFU) suspended in PBS. After 2 h, the bladders were removed aseptically. Then the bladders were either bisected and fixed with 2% paraformaldehyde plus 2% gluteraldehyde in PBS (for transmission electron microscopy) or frozen for immunofluorescence microscopy. For the 2-h-long infections with E. coli and S. enterica SL1344, BALB/c mice were infected as above. After 2 h, the mice were intraperitoneally injected with 100 μl PBS (with or without 10 mg/kg forskolin) and intravesicularly instilled, for 1 h, with 100 μg/ml gentamicin in PBS (with or without 100 μM forskolin). For the 24-h-long infections, BALB/c mice were infected. After 24 h, the mice were intravesicularly instilled with 50 μl of PBS (with or without 100 μM forskolin) for 1 h. The 100 μM forskolin in PBS was replaced by 100 μg/ml gentamicin in PBS for 30 min. The bladders were then removed aseptically and homogenized them in 0.1% Triton X-100 in PBS. Homogenate dilutions were plated for colony counts.

E. coli CI5 [3] = assay: as above; parameters: species or system mouse; conditions: BALB/c mice, forskolin 2 h after infection, i.p. 10 mg/kg and by catheter 100 μM
Method: as §1

E. coli CI5 [4] = assay: In vivo bladder infection with 3-d-long forskolin regimen; parameters: species or system mouse; conditions: C3H/HeJ mice, forskolin 10 mg/kg i.p. at 6, 24 and 48 h; at 72 h; P≦0.03
Method: In this procedure, 8-week-old female C3H/HeJ mice were infected with E. coli CI5 as above. At 6, 24 and 48 h after infection, the mice were intraperitoneally injected with 100 μl PBS, with or without 10 mg/kg forskolin. At 72 h after infection, bladders were aseptically removed and plated for colony counts.

[5] = system: E. coli ORN103(pSH2) invasion into 5637 BECs; assay: Gentamicin protection assay, UPEC invasion; format: cell-based, human; conditions: dilution 1:10
Method: (§2) A gentamicin protection assay, including 5637 BECs on 96-well plates (40,000 cells/well), was used to determine the effect of forskolin on UPEC invasion. In this example, the UPEC was either J96 or E. coli ORN103(pSH2). 50 μM forskolin was administered as a pretreatment for 15 min before infection or administered at the same time as the bacteria.

[6] = system: UPEC J96 invasion into 5637 BECs; assay: Gentamicin protection assay, UPEC invasion; format: cell-based, human; conditions: dilution 1:10
Method: as §2

UPEC strain CI5 = assay: In vivo gentamicin protection assay, UPEC colonization of the bladder; parameters: species or system mouse; conditions: IP Fsk/Cather Fsk, 1 hr treatment
Method: An in vivo gentamicin protection assay was used to determine the effect of forskolin on UPEC colonization of the bladder. In this example, UPEC strain CI5 was injected into the bladder via catheter to initiate a urinary tract infection. After 2 hours of infection, the mice were re-catheterized, the urine was removed, and the bladder was treated with 100 uM forskolin in PBS for 1 hour. After the forskolin treatment, 100 ug/ml gentamicin in PBS was injected into the bladder via catheter for 30 minutes. The bladders were then removed, washed in sterile PBS, and homogenized. The homogenates were plated on LB agar for overnight colony counts at various dilutions. Control mice were treated with PBS alone instead of forskolin plus PBS. The top half of Table 3 represents the raw colony counts while the bottom half of Table 3 represents the calculated bladder load of UPEC strain C15 based on the dilutions.

bacteria = assay: Bacterial viability (data not shown)
E. coli CI5 [7] = assay: In vivo bladder infection, 24-h-long infection, intravesicular forskolin; parameters: species or system mouse; conditions: Balb/c mice
Method: as §1

[8] = system: human bladder epithelial cells; assay: Intracellular cAMP enzyme immunoassay; format: cell-based
Method: In this example, the effect of bacterial lipopolysccharide (LPS), a Toll-like Receptor 4 (TLR4) ligand, on intracellular levels of cAMP was assessed in human bladder epithelial cells (BECs). Methods are as described in Song et al. (2007) PLoS Pathog. 3(4):e60. BECs were seeded onto 6-well plates and grown overnight. The cells were treated with […] E. coli LPS for 6 h at 37° C., followed by washing four times with PBS to remove culture media, followed by an addition of […] of 0.1 M HCl. After a 10 min incubation, the cell lysate was centrifuged and the supernatant was used directly in the cAMP assay. Intracellular concentrations of cAMP were determined using a cAMP enzyme immunoassay kit (Sigma) according to the manufacturer's instructions.

phosphodiesterases = conditions: read-out: IC50, non-specific inhibitor of phosphodiesterases; cited from earlier work
[9] = system: E. coli ORN103(pSH2) within 5637 BECs; assay: Intracellular bacteria survival assay (antibiotic protection); format: cell-based, human; conditions: NH4Cl 10 mM, 50 mM; Bafilomycin 1 μM
Method: In this assay, 5637 BECs were infected with ORN103(pSH2) E. coli diluted in RPMI 1640 medium at a multiplicity of infection (MOI) of 100:1. Cells were centrifuged for 5 min at 600 g, and incubated for 60 min at 37° C. Next, the cells were incubated with 100 μg/ml of gentamicin (Invitrogen) in RPMI medium for 30 min, and then with 10 μg/ml gentamicin in RPMI medium. At each time point, the cells were washed using PBS, solubilized with 0.1% Triton X-100 in PBS and plated for colony counts.

[10] = SH2, 50 μM forskolin at the same time as the bacteria
[11] = SH2, 50 μM forskolin pretreatment 15 min before infection
[12] = J96, 50 μM forskolin at the same time as the bacteria
[13] = J96, 50 μM forskolin pretreatment 15 min before infection

In the case of `[Cl][Ni][Cl]` [NiCl2], the “E. coli ORN103(pSH2) exocytosis into antibiotic-free medium” value [1] is reported as “reduced” and the “release of β-hexosaminidase from E. coli-infected BECs” value (5637 BECs) is reported as “regulatable”.

In the case of `C[C@H](CCC(=O)O)C[C@H](C)C[C@H](C)C(=O)/C=C(\O)[C@H](C)C[C@H](C)C/C=C/[C@@H](C)[C@@H](O)[C@@H](C)[C@@H](O)C[C@@H]1CC[C@@](C)([C@H]2CC[C@@](C)([C@@H](C)O)O2)O1` [calcium ionophore, ionomycin], the “release of β-hexosaminidase into extracellular media” value (5637 BECs) is reported as “stimulated the BECs to release appreciable levels of β-hexosaminidase”.

With `CCCC(=O)Nc1ncnc2c1ncn2[C@@H]1O[C@@H]2COP(=O)(O)O[C@H]2[C@H]1OC(=O)CCC` [dibutyryl-cAMP] the “release of β-hexosaminidase into extracellular media” value (5637 BECs) was “stimulated the BECs to release appreciable levels of β-hexosaminidase”.

For `C=C[C@@]1(C)CC(=O)[C@]2(O)[C@@]3(C)[C@@H](O)CCC(C)(C)[C@@H]3[C@H](O)[C@H](OC(C)=O)[C@@]2(C)O1` [forskolin], the “decrease in urine IL-6” value (IL-6; E. coli CI5-infected C3H/HeJ mice, 18 h after forskolin 10 mg/kg i.p., P≦0.0003) was 99.6%, the “IL-6 levels in uninfected mice” value (IL-6; forskolin treatment alone, uninfected mice) was “did not alter IL-6 levels” and the “translocation of fusiform vesicles to the apical plasma membrane” value [2] was “translocation of fusiform vesicles to the apical plasma membrane of mouse bladders was detected”. For the same molecule, the “effect on intracellular S. enterica SL1344” value (S. enterica SL1344) was “no effect”, the “intracellular E. coli CI5 eliminated” value (E. coli CI5 [3]) was “over 99%” and the “decrease of average bacterial load within the bladders compared to control mice” value (E. coli CI5 [4]) was 56%. The “intracellular bacteria, Mean” value [5, 10] was 10575 colony counts, the “intracellular bacteria, replicate 1” value [5, 10] was 10980 colony counts and the “intracellular bacteria, replicate 2” value [5, 10] was 8260 colony counts. For the same molecule, the “intracellular bacteria, replicate 3” value [5, 10] was 14140 colony counts, the “intracellular bacteria, replicate 4” value [5, 10] was 8920 colony counts and the “intracellular bacteria, Mean” value [5, 11] was 9553 colony counts. The “intracellular bacteria, replicate 1” value [5, 11] was 8860 colony counts, the “intracellular bacteria, replicate 2” value [5, 11] was 9060 colony counts and the “intracellular bacteria, replicate 3” value [5, 11] was 10740 colony counts. For the same molecule, the “intracellular bacteria, Mean” value [6, 12] was 545 colony counts, the “intracellular bacteria, replicate 1” value [6, 12] was 800 colony counts and the “intracellular bacteria, replicate 2” value [6, 12] was 640 colony counts. The “intracellular bacteria, replicate 3” value [6, 12] was 460 colony counts, the “intracellular bacteria, replicate 4” value [6, 12] was 280 colony counts and the “intracellular bacteria, Mean” value [6, 13] was 535 colony counts. The “intracellular bacteria, replicate 1” value [6, 13] was 720 colony counts, the “intracellular bacteria, replicate 2” value [6, 13] was 140 colony counts and the “intracellular bacteria, replicate 3” value [6, 13] was 200 colony counts. The “intracellular bacteria, replicate 4” value [6, 13] was 1080 colony counts, the “Percent Control (bladder load), Average” value (UPEC strain CI5) was 0.41% and the “Percent Control (bladder load), mouse 1” value (UPEC strain CI5) was 0.45%. The “Percent Control (bladder load), mouse 2” value (UPEC strain CI5) was 0.22%, the “Percent Control (bladder load), mouse 3” value (UPEC strain CI5) was 0.56% and the “raw colony counts of bladder homogenate, Average” value (UPEC strain CI5) was 83 colony counts. For the same molecule, the “calculated bladder load of UPEC strain CI5, Average” value (UPEC strain CI5; based on the dilutions) was 1653 colony counts, the “calculated bladder load of UPEC strain CI5, mouse 1” value (UPEC strain CI5; based on the dilutions) was 1820 colony counts and the “calculated bladder load of UPEC strain CI5, mouse 2” value (UPEC strain CI5; based on the dilutions) was 900 colony counts. The “calculated bladder load of UPEC strain CI5, mouse 3” value (UPEC strain CI5; based on the dilutions) was 2240 colony counts, the “raw colony counts of bladder homogenate, mouse 1” value (UPEC strain CI5; dilution 1:1) was 91 colony counts and the “raw colony counts of bladder homogenate, mouse 2” value (UPEC strain CI5; dilution 1:1) was 45 colony counts. The “raw colony counts of bladder homogenate, mouse 3” value (UPEC strain CI5; dilution 1:1) was 112 colony counts, the “effect on bacterial viability” value (bacteria) was “no effect” and the “release of β-hexosaminidase into extracellular media” value (5637 BECs) was “stimulated the BECs to release appreciable levels of β-hexosaminidase”. The “reduction in the number of E. coli CI5 within bladder compared to saline-treated controls” value (E. coli CI5 [7]; intravesicular forskolin 100 μM 24 h after infection, P≦0.033) was 79.4% and the “mice harboring >10^5 bacteria in their bladders” value (E. coli CI5 [7]; intravesicular forskolin 24 h after infection, control 33%, P≦0.01) was 4.1%.

For `CC(C)Cn1c(=O)n(C)c(=O)c2[nH]cnc21` [IBMX, 3-Isobutyl-1-methylxanthine], the “intracellular cAMP levels compared to untreated controls” value [8] is listed as “significantly increases” and the IC50 (phosphodiesterases) is listed as 2 to 50 µM.

In the case of `O=S(=O)(NCCNC/C=C/c1ccc(Br)cc1)c1cccc2cnccc12` [H89], the “E. coli ORN103(pSH2) exocytosis into antibiotic-free medium” value [1] is reported as “reduced” and the “release of β-hexosaminidase from E. coli-infected BECs” value (5637 BECs) is reported as “regulatable”.

For `CO/C1=C\C(C)=C\[C@@H](C)[C@@H](O)[C@@H](C)C/C(C)=C/C=C/[C@H](OC)[C@@H]([C@@H](C)[C@@H](O)[C@H](C)[C@@]2(O)C[C@@H](O)[C@H](C)[C@@H](C(C)C)O2)OC1=O` [Bafilomycin], the “E. coli ORN103(pSH2) persistence within 5637 BECs” value [9] was “caused no improvement”.

In the case of `Cl.N` [NH4Cl], the “E. coli ORN103(pSH2) persistence within 5637 BECs” value [9] is reported as “caused no improvement”.
